Measurements: article PMC3900249 (Clinical pharmacology and therapeutics, 2012)

Assays:
[1] = test system: CYP2C9-mediated (S)-warfarin 7-hydroxylation; assay: Prediction of in vivo warfarin drug interaction from [I]/KI and [I]u/KI,u; parameters: species or system human; details: equation 1
[2] = single warfarin dose studies, healthy volunteers (n = 5 or 6); cited from earlier work

In the case of `CC(=O)C[C@@H](c1ccccc1)c1c(O)c2ccccc2oc1=O` [(S)-warfarin], the “predicted increase in AUC” value ([1]; sum of [I]/KI ratios of AMIO and circulating metabolites) is listed as 6 fold, the “predicted increase in AUC” value ([1]; sum of [I]u/KI,u ratios of AMIO and circulating metabolites) is listed as 6 fold and the “actual increase in the mean AUC caused by the drug interaction with AMIO” value [2] is listed as 27 to 110%.
